Data taken from patent US12721906B2, “Kidney targeted delivery of drugs” (The Brigham and Women's Hospital, Inc., priority 2020, dated 2026).

What was measured:
megalin [1] = molecular target: T1, megalin (Homo sapiens, UniProt P98164); assay: Uptake of LC-NPs by HK-2 cells after cilastatin or megalin siRNA; assay type: cell-based; conditions: in vitro
T1 construct: effective knockdown of megalin expression in HK-2 cells was performed using siRNA directed against the megalin gene; host or cells: HK-2 human kidney proximal tubular epithelial cells
Text: FIG. 4G-FIG. 4I. […] FIG. 4H: LC-NPs underwent lower uptake by HK-2 cells treated with cilastatin than vehicle (DPBS)-treated cells. […] Values are means±SD. means±SD. **P<0.01, and ***P<0.001 and ns: not significant as calculated by two-tailed Student's t-test.

megalin [2] = molecular target: megalin (Mus musculus, UniProt A2ARV4)
Experimental: Female C57BL/6 mice were divided into two groups. The first group (n=4) was treated subcutaneously with 100 mg/kg Cilastatin sodium salt (>98%, Sigma Aldrich, USA) once daily for 4 days, and the second group (n=3) was treated subcutaneously with DPBS for 4 days. On the day of the last treatment, the LC-NP was injected to the mice. 1 day post injection the mice were euthanized and perfused with DPBS, and the kidneys were harvested and imaged.
Without being bound by any particular theory, it was hypothesized that the accumulation of LC-NP in the PTECs of the kidney is dependent on its binding to megalin. To test this hypothesis, the mice were treated with cilastatin or vehicle (DPBS) for 4 days prior to injection of LC-NP. Cilastatin, an inhibitor of renal dehydropeptidase-I (DHP-I), blocks megalin-mediated uptake in the kidney through competitive inhibition^33. 24 hours post-injection of LC-NP, the mice were euthanized and the major organs were harvested for imaging. […] Next, the specific effect of cilastatin on the binding of LC-NPs to PTECs was examined by treating HK-2 human PTECs in vitro directly with LC-NPs and cilastatin.

Sequence of megalin (Mus musculus, UniProt A2ARV4) (A2ARV4 26-4660): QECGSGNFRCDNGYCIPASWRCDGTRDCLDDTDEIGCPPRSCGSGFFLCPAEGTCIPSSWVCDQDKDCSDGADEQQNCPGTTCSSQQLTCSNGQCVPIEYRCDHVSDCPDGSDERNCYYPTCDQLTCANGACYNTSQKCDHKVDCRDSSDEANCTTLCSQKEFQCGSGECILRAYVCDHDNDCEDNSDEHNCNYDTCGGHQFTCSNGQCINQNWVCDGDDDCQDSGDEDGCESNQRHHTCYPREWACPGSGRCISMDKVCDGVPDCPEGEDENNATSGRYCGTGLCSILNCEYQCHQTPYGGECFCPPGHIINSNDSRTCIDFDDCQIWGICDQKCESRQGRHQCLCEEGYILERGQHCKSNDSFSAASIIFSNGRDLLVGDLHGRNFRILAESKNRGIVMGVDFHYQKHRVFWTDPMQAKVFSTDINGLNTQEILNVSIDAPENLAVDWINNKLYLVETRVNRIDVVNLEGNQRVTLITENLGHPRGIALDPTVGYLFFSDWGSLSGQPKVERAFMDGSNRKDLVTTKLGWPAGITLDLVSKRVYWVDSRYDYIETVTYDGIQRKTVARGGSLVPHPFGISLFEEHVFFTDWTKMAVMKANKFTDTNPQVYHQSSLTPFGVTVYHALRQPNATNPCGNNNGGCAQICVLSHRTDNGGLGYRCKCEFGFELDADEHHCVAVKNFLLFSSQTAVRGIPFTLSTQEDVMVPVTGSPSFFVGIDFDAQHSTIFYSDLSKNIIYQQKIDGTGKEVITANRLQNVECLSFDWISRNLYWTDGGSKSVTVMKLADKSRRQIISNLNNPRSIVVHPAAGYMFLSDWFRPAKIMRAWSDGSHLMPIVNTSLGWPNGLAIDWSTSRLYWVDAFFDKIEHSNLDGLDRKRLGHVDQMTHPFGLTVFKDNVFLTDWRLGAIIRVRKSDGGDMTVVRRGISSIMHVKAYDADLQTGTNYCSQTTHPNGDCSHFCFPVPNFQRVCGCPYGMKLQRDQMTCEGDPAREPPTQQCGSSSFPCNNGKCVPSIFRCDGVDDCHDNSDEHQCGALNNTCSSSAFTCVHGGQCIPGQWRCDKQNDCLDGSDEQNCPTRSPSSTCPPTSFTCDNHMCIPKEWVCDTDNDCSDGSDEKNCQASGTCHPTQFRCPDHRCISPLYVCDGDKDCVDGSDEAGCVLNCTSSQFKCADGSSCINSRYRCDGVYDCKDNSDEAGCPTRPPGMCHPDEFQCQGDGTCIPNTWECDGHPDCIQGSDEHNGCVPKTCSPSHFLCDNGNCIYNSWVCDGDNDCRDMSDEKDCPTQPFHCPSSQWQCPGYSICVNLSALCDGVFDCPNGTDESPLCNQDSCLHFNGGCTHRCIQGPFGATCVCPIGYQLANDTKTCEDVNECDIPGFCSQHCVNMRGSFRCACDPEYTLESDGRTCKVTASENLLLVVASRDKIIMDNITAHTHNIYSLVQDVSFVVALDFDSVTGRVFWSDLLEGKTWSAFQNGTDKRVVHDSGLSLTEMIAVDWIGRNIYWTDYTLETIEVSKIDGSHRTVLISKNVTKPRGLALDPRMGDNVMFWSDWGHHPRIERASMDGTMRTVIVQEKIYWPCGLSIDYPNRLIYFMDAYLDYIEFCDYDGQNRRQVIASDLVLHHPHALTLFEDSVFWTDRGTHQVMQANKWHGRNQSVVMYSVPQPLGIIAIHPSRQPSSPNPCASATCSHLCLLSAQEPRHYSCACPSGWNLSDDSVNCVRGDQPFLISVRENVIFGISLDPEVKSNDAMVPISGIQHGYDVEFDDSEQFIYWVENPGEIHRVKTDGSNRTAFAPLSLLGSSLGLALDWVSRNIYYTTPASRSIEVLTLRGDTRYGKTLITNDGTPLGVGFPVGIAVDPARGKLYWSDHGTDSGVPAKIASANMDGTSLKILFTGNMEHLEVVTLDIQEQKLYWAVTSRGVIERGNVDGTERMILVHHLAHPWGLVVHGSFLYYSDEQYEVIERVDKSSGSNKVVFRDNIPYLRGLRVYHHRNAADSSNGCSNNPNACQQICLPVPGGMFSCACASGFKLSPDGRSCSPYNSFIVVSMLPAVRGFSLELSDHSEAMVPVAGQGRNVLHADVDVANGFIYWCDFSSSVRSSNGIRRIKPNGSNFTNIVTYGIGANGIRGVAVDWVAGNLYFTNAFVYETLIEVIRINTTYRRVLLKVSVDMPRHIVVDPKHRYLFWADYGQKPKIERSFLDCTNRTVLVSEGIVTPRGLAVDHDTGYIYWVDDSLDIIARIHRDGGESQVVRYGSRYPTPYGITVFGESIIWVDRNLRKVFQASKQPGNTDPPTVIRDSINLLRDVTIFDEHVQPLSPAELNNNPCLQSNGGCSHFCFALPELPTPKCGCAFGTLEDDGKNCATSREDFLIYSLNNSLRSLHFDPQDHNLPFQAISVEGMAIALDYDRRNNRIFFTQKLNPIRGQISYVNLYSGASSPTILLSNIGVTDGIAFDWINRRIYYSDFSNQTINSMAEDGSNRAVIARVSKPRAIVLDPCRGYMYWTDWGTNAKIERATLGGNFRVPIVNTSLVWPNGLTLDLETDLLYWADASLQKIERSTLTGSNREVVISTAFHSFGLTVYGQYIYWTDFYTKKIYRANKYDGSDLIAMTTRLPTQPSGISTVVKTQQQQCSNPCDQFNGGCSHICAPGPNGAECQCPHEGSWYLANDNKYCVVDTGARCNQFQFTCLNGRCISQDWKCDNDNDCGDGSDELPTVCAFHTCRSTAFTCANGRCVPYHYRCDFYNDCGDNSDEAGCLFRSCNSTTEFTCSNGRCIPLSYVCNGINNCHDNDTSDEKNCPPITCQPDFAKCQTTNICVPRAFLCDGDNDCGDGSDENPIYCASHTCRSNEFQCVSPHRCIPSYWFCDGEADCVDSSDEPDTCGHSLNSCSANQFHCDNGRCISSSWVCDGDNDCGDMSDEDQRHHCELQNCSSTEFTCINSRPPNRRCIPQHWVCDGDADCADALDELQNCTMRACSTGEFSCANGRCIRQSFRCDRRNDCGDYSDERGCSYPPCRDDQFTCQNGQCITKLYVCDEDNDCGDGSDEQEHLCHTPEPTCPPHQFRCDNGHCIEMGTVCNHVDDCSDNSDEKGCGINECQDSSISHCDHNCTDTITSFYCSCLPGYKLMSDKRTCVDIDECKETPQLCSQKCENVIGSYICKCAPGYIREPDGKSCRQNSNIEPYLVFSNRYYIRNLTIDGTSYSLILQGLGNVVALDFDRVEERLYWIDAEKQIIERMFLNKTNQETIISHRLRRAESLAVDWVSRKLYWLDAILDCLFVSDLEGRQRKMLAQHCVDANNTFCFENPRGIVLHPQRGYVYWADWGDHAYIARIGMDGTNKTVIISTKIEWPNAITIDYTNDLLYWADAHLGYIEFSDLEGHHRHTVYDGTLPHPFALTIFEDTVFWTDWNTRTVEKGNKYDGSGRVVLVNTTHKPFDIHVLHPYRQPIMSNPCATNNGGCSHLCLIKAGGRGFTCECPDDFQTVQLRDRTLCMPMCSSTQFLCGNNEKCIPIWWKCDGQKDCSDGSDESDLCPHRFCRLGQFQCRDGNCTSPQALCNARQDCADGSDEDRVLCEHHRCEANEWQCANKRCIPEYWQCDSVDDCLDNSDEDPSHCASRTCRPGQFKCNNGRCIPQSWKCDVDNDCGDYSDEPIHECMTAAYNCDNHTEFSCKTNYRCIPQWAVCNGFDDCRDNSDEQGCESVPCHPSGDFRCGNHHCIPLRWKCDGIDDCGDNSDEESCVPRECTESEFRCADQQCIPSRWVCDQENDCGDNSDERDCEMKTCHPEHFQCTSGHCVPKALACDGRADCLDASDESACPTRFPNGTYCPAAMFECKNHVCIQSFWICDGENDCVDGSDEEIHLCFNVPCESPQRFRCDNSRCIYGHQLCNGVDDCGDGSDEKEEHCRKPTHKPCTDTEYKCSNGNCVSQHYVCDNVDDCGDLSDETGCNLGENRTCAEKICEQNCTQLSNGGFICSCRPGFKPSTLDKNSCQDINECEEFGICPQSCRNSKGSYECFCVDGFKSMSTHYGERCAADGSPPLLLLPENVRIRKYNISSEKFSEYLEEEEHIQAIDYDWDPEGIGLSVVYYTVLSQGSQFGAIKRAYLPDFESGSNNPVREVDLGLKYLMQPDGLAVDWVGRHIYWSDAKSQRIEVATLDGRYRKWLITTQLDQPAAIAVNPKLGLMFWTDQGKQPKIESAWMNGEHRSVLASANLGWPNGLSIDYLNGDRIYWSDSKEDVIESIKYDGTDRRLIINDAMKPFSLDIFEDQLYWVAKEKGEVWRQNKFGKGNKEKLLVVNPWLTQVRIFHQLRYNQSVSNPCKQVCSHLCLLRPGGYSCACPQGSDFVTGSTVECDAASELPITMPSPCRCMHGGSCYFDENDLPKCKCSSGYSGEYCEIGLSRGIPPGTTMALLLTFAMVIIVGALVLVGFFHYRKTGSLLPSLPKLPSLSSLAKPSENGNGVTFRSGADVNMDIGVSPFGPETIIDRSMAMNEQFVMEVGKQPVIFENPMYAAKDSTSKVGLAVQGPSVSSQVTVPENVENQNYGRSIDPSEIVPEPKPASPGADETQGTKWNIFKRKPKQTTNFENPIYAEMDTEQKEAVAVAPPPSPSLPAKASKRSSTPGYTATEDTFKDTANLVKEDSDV

CC1(C)C[C@@H]1C(=O)N/C(=C\CCCCSC[C@H](N)C(=O)O)C(=O)O [cilastatin, Cilastatin]
number of LC-NPs taken up by HK-2 cells, with vs without cilastatin (megalin [1]): significantly lower | kidney MFI of LC-NP, cilastatin-treated vs vehicle-treated mice (megalin [2]; cilastatin 4 days before LC-NP, 24 hours post-injection): significantly lower | kidney MFI of NPs, cilastatin-treated vs vehicle-treated mice (megalin [2]; mice injected with NPs): no statistical difference
